Earlier results in US20060009509A1, “Progesterone receptor antagonists, contraceptive regimens, and kits” (Wyeth, priority 2004, published 2006).
Like-named read-outs stand apart in the source and are kept apart here.

System: women

## CC#C[C@]1(O)CC[C@H]2[C@@H]3CCC4=CC(=O)CCC4=C3[C@@H](c3ccc(N(C)C)cc3)C[C@@]21C [mifepristone]
1 mg daily, 3-month treatment (Croxatto 1998)
  women who ovulated at least once: 14 of 21
2 mg continuous, 4 months, Edinburgh site (Brown 2002)
  ovulations, % of cycles: 9.6%
2 mg continuous, Shanghai site (Brown 2002)
  ovulations, % of cycles: 2.5%
5 mg continuous, 4 months, Edinburgh site (Brown 2002)
  ovulations, % of cycles: 5.2%
5 mg continuous, Shanghai site (Brown 2002)
  ovulations, % of cycles: 1.2%
Continuous dose of 1 mg, study of 11 subjects (Batista 1992)
  prevention of ovulation: appeared to prevent ovulation
Continuous dose of 1 mg, study with 5 subjects (Croxatto 1993)
  prevention of ovulation: not
Continuous low doses 2-10 mg, one treatment cycle, about 5 subjects per dose group (Spitz 1993; Ledger 1992)
  prevention of ovulation: prevent ovulation
